Tests used:
Assay type in all cases: cell-based
[1] = tested on: Staphylococcus haemolyticus 105; assay: MIC, standard broth micro-dilution assay, SH 105
Description: (§1) The antibacterial efficacy of the present compounds is illustrated by Table II. The minimal inhibitory concentrations (MICs) were determined using a standard broth micro-dilution assay.

[2] = tested on: Enterococcus faecium and faecalis (RESISTANT); conditions: geometric mean of 4-6 isolates
Description: as §1

[3] = tested on: Enterococcus faecium and faecalis (SENSITIVE); conditions: geometric mean of 4-6 isolates
Description: as §1

[4] = tested on: Staphylococcus aureus 446; assay: MIC, standard broth micro-dilution assay, SA 446
Description: as §1

[5] = tested on: Staphylococcus aureus 447; assay: MIC, standard broth micro-dilution assay, SA 447
Description: as §1

[6] = tested on: Staphylococcus epidermidis 270; assay: MIC, standard broth micro-dilution assay, SE 270
Description: as §1

[7] = tested on: Streptococcus pyogenes C203; assay: MIC, standard broth micro-dilution assay, SPY C203
Description: as §1

[8] = tested on: Staphylococcus aureus 489; assay: MIC, standard broth micro-dilution assay, SA 489
Description: as §1

[9] = tested on: Streptococcus pneumoniae P1; assay: MIC, standard broth micro-dilution assay, SPN P1
Description: as §1

[10] = tested on: Staphylococcus haemolyticus 415; assay: MIC, standard broth micro-dilution assay, SH 415
Description: as §1

Compound	Minimal Inhibitory Concentration (MIC) SH 105 [1]	Minimal Inhibitory Concentration (MIC) RESISTANT [2]	Minimal Inhibitory Concentration (MIC) SENSITIVE [3]	Minimal Inhibitory Concentration (MIC) SA 446 [4]	Minimal Inhibitory Concentration (MIC) SA 447 [5]	Minimal Inhibitory Concentration (MIC) SE 270 [6]	Minimal Inhibitory Concentration (MIC) SPY C203 [7]	Minimal Inhibitory Concentration (MIC) SA 489 [8]	Minimal Inhibitory Concentration (MIC) SPN P1 [9]	Minimal Inhibitory Concentration (MIC) SH 415 [10]
CC(C)CC(C(=O)NC1C(=O)NC(CC(N)=O)C(=O)NC2C(=O)NC3C(=O)NC(C(=O)NC(C(=O)O)c4cc(O)cc(O)c4-c4cc3ccc4O)C(OC3CC(C)(N)C(O)C(C)O3)c3ccc(c(Cl)c3)Oc3cc2cc(c3OC2OC(CO)C(O)C(O)C2OC2CC(C)(NCc3ccc(Oc4ccccc4)cc3)C(O)C(C)O2)Oc2ccc(cc2Cl)C1O)N(C)C(=S)Nc1ccc(N(C)C)cc1 (stereo not drawn) [Example 19, N^LEU -((p-(DIMETHYLAMINO)-PHENYL)THIOCARBAMOYL)-N^DISACC -(p-PHENOXYBENZYL)A82846B]	2	19	2.6	2	2	2	0.25	2	2	4
CC(C)CC(C(=O)NC1C(=O)NC(CC(N)=O)C(=O)NC2C(=O)NC3C(=O)NC(C(=O)NC(C(=O)O)c4cc(O)cc(O)c4-c4cc3ccc4O)C(OC3CC(C)(N)C(O)C(C)O3)c3ccc(c(Cl)c3)Oc3cc2cc(c3OC2OC(CO)C(O)C(O)C2OC2CC(C)(NCc3ccc(Oc4ccccc4)cc3)C(O)C(C)O2)Oc2ccc(cc2Cl)C1O)N(C)C(=S)Nc1ccc(OCc2ccccc2)cc1 (stereo not drawn) [Example 20, N^LEU -((p-(BENZYLOXY)PHENYL)-THIOCARBAMOYL)-N^DISACC -(p-PHENOXYBENZYL)A82846B]	2	9.5	5.6	4	2	1	≤ 0.06	2	4	2
CC(C)CC(C(=O)NC1C(=O)NC(CC(N)=O)C(=O)NC2C(=O)NC3C(=O)NC(C(=O)NC(C(=O)O)c4cc(O)cc(O)c4-c4cc3ccc4O)C(OC3CC(C)(N)C(O)C(C)O3)c3ccc(c(Cl)c3)Oc3cc2cc(c3OC2OC(CO)C(O)C(O)C2OC2CC(C)(NCc3ccc(-c4ccc(Cl)cc4)cc3)C(O)C(C)O2)Oc2ccc(cc2Cl)C1O)N(C)C(=S)Nc1ccccc1 (stereo not drawn) [Example 22, N^LEU -(PHENYLTHIOCARBAMOYL)-N^DISACC -(p-(p-CHLOROPHENYL)-BENZYL)A82846B]	1	6.7	2.6	2	1	0.5	≤ .06	1	≤ .06	2

From US5919771A, “Urea and thiourea derivatives of glycopeptides” (Eli Lilly and Company, priority 1998, dated 1999)
